From ChEMBL document CHEMBL1201862, “PubChem BioAssay data set” (2004) come the findings set out here.

Active and inactive are the calls of the source.

For test [1], the target named is T1, Nucleotide-binding oligomerization domain-containing protein 1 (Homo sapiens, UniProt Q9Y239).
T1 sequence (Q9Y239 whole entry): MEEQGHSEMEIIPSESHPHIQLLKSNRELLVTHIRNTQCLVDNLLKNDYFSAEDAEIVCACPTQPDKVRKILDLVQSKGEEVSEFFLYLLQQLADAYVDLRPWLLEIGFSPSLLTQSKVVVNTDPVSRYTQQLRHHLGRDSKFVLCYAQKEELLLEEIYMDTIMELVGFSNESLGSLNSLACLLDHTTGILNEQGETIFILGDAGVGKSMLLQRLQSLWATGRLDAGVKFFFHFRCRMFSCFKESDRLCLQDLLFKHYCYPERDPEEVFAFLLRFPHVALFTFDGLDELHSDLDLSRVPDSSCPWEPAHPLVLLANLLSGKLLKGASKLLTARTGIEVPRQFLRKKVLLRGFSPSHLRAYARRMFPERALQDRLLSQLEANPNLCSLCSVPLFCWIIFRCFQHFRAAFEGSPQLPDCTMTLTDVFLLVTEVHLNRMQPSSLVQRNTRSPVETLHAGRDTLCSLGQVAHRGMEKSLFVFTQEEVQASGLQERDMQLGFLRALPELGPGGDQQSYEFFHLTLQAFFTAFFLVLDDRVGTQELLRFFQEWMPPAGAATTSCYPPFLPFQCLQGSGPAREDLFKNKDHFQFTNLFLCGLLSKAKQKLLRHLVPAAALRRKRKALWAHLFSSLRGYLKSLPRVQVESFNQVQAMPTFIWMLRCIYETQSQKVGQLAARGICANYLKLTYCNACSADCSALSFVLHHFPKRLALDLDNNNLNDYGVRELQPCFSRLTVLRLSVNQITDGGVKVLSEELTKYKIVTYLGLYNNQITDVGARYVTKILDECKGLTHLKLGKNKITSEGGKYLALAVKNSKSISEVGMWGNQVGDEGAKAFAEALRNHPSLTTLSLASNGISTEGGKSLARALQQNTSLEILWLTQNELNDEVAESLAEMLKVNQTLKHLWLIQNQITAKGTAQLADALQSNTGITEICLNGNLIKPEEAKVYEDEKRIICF
Description: SAR analysis of compounds that inhibit NOD1 - Set 3. [Related pubchem assays (depositor defined):AID1566, AID1575, AID1578, AID1849, AID1852, AID2333, AID2335, AID2466]. Format: functional.

The next test addresses Tumor necrosis factor (Homo sapiens, UniProt P01375). Description: TNFa-triggered NF-kB activation inhibitors, SAR follow-up, cell-based, set 3 (AID 2801). Format: functional.
For a further test, the system named is HEK293. Description: SAR analysis of compounds that are cytotoxic to HEK293 - Set 3. [Related pubchem assays (depositor defined):AID1575, AID1578, AID1848, AID1849, AID2001, AID2333, AID2334, AID2335, AID2337, AID2469]. Format: functional, cell-based. The conditions noted are these: Homo sapiens.
Test [2] has as its target Nucleotide-binding oligomerization domain-containing protein 2 (Homo sapiens, UniProt Q9HC29). The test can be described thus: NOD2 signaling inhibitors, analog potency, SAR follow-up, cell-based, set 3 (AID 2799). Format: functional.
In test [3] the target is T2, G-protein coupled receptor 55 (Homo sapiens, UniProt Q9Y2T6). Description: GPR55 antagonists blocking LPI-driven arrestin recruitment, primary screen, imaging, U2OS, beta-arrestin-GFP, LPI agonist (AID 2013).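 Note: antagonist potency measured as reduced agonist-driven arrestin aggregation.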 In kind it is functional. (Activated receptors often draw arrestin, which recruitment assays turn into a signal.)
T2 sequence (Q9Y2T6 whole entry): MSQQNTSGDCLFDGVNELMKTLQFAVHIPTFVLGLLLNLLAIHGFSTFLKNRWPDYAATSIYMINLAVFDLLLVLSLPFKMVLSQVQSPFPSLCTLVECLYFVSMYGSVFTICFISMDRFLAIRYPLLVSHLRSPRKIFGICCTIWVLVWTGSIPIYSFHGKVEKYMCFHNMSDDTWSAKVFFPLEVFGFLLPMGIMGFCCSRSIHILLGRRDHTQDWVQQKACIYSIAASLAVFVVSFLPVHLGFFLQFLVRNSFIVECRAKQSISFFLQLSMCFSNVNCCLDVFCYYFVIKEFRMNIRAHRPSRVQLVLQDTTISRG
Test [4] deals with T3, Cannabinoid receptor 1 (Homo sapiens, UniProt P21554). Description: SAR analysis of antagonists of the Cannabinoid Receptor 1 using an Image-Based Assay - Set 2. [Related pubchem assays (depositor defined):AID2013, AID2026]. In kind it is functional.
T3 sequence (P21554 whole entry): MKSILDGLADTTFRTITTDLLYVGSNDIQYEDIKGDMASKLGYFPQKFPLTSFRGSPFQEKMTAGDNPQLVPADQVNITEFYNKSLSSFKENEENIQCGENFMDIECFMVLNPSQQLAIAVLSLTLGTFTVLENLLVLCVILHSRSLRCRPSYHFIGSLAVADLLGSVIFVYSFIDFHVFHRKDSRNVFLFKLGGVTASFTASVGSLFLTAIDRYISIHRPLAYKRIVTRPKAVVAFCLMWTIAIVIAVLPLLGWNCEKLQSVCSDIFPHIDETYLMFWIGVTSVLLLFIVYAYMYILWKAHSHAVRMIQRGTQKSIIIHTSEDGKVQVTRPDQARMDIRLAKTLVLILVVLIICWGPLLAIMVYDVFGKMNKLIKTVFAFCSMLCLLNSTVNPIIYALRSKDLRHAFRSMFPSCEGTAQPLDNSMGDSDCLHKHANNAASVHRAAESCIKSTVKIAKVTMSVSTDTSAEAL
For test [5], the target named is T4, G-protein coupled receptor 35 (Homo sapiens, UniProt Q9HC97). Description: SAR analysis of Agonists of the GPR35 Receptor using an Image-Based Assay - Set 2. [Related pubchem assays (depositor defined):AID2013, AID2026]. In kind it is functional.
T4 sequence (Q9HC97 whole entry): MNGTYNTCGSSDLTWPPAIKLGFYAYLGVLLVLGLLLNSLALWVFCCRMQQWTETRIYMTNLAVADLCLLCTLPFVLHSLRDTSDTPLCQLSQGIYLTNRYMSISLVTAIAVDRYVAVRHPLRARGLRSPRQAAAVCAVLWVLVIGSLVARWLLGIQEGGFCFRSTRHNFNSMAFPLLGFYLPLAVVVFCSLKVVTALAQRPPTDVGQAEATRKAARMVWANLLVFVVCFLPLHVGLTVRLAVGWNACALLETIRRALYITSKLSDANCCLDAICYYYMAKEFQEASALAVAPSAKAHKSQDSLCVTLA
In test [6] the target is T5, Cannabinoid receptor 2 (Homo sapiens, UniProt P34972). The test can be described thus: SAR analysis of antagonists of the Cannabinoid Receptor 2 using an Image-Based Assay. [Related pubchem assays (depositor defined):AID2013, AID2026]. In kind it is functional.
T5 sequence (P34972 whole entry): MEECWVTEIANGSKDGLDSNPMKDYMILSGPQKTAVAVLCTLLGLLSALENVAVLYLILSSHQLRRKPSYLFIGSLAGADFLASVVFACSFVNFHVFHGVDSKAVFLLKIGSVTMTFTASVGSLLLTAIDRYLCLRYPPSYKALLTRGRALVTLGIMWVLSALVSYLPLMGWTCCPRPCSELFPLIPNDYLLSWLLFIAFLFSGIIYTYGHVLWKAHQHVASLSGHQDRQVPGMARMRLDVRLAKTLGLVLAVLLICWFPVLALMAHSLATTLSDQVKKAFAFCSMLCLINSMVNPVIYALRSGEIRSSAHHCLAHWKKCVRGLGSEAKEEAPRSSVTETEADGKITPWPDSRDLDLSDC
Test [7] has as its target T3, Cannabinoid receptor 1. Description: SAR analysis of agonists of the Cannabinoid Receptor 1 using an Image-Based Assay - Set 2. [Related pubchem assays (depositor defined):AID2013, AID2026]. In kind it is functional.
The target of test [8] is T4, G-protein coupled receptor 35. Description: SAR analysis of Antagonists of the GPR35 Receptor using an Image-Based Assay - Set 3. [Related pubchem assays (depositor defined):AID2013, AID2026]. In kind it is functional.
Test [9] addresses T2, G-protein coupled receptor 55. The test can be described thus: GPR55 antagonist potency of analogs, SAR follow-up, imaging, U2OS, beta-arrestin-GFP, LPI agonist, set 2 (AID 2820). In kind it is functional.
In test [10] the target is T5, Cannabinoid receptor 2. The test can be described thus: SAR analysis of agonists of the Cannabinoid Receptor 2 using an Image-Based Assay. [Related pubchem assays (depositor defined):AID2013, AID2026]. In kind it is functional.

Chain of Nucleotide-binding oligomerization domain-containing protein 2 (Q9HC29 whole entry, the tested form may be a part): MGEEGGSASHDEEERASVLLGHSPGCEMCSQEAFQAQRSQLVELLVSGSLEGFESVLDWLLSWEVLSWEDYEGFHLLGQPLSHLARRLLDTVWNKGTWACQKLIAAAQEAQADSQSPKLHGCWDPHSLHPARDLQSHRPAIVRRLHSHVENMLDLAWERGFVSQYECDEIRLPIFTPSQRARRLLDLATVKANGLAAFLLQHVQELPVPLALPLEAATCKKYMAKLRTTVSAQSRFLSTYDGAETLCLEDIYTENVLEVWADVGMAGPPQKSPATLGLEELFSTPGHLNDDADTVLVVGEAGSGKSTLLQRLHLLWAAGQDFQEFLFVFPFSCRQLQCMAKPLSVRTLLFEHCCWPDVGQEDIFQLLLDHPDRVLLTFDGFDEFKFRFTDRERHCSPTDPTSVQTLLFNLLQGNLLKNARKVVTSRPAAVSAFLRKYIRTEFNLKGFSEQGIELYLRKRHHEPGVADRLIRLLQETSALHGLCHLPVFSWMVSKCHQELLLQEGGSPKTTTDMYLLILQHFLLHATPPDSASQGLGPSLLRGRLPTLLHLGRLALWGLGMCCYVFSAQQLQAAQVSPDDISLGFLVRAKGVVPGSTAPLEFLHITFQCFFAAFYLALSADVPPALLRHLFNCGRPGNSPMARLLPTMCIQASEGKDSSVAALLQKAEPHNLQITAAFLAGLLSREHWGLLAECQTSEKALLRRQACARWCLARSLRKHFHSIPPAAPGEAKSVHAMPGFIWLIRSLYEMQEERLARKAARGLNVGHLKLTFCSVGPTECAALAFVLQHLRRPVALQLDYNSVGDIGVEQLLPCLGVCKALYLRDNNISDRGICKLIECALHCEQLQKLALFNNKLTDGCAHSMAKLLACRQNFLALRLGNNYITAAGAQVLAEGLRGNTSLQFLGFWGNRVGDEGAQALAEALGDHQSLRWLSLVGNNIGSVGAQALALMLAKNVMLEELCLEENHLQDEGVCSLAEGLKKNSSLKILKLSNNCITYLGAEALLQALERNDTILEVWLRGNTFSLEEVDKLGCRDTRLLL
Chain of Tumor necrosis factor (P01375 whole entry): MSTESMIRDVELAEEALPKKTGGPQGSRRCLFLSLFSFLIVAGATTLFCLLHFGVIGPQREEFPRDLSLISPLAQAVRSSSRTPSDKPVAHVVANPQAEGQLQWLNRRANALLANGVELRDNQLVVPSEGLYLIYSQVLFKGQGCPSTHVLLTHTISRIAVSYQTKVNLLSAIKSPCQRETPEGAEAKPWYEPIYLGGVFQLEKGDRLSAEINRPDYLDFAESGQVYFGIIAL

The term IC50 denotes the concentration at which inhibition is half-maximal. Consider `COc1ccc(-c2cc(N)n(S(=O)(=O)c3cccc([N+](=O)[O-])c3)n2)cc1OC`, for which the IC50 (in test [1]; at Tumor necrosis factor; in the test on HEK293; in test [2]) was > 20 µM (inactive) each time.

As usually defined, the EC50 is the concentration that produces a half-maximal response. With `COc1ccc(-c2c(-c3ccc(O)cc3O)n[nH]c2C(F)(F)F)cc1`, the IC50 in [3] is 1.8 µM (active); on Cannabinoid receptor 1 [4], 8.82 µM (active); on Cannabinoid receptor 2 [6] it was > 32 µM (inactive); in test [8] it was > 32 µM (inactive); in [9], 1.06 µM (active). Moreover, the values for the EC50 (in test [5]; on Cannabinoid receptor 1 [7]; at Cannabinoid receptor 2 [10]) were > 32 µM (inactive), > 32 µM (inactive) and 30.2 µM (inactive), respectively.
